Laboratory results: publication PMC5218480 (PLoS ONE, 2017)

Tested on: MV-4-11 cells
Assay: Gene expression microarray analysis (Affymetrix PrimeView) and GSEA
Assay type: cell-based, human
Design: RFU PODN (11730768_x_at) / Fold change /veh PODN (11730768_x_at) / RFU LINC00158 (11744669_a_at) / Fold change /veh LINC00158 (11744669_a_at) / RFU DUSP10 (11751237_a_at) / Fold change /veh DUSP10 (11751237_a_at) / RFU ID3 (11757404_x_at) / Fold change /veh ID3 (11757404_x_at) / RFU PLEKHG5 (11737974_s_at) / Fold change /veh PLEKHG5 (11737974_s_at) / RFU LRRC4B (11730491_at) / Fold change /veh LRRC4B (11730491_at) / RFU GIMAP4 (11747438_a_at) / Fold change /veh GIMAP4 (11747438_a_at) / RFU KRT8 (11758183_x_at) / Fold change /veh KRT8 (11758183_x_at) / RFU CNN1 (11734310_a_at) / Fold change /veh CNN1 (11734310_a_at) / RFU VPS37D (11726825_at) / Fold change /veh VPS37D (11726825_at) / RFU C10orf10 (11716522_x_at) / Fold change /veh C10orf10 (11716522_x_at) / RFU KIR2DL2 /// KIR2DL4 /// KIR2DL5A /// KIR2DL5B /// KIR2DS1 /// KIR2DS2 /// KIR2DS3 /// KIR2DS4 /// KIR3DL3 /// KIR3DL3 /// KIR3DS1 (11738374_at) / Fold change /veh KIR2DL2 /// KIR2DL4 /// KIR2DL5A /// KIR2DL5B /// KIR2DS1 /// KIR2DS2 /// KIR2DS3 /// KIR2DS4 /// KIR3DL3 /// KIR3DL3 /// KIR3DS1 (11738374_at) / RFU C1QL1 (11718748_at) / Fold change /veh C1QL1 (11718748_at) / RFU TMPRSS4 (11747572_a_at) / Fold change /veh TMPRSS4 (11747572_a_at) / RFU HAMP (11756126_x_at) / Fold change /veh HAMP (11756126_x_at) / RFU RNFT2 (11725882_a_at) / Fold change /veh RNFT2 (11725882_a_at) / RFU NR4A2 (11747474_a_at) / Fold change /veh NR4A2 (11747474_a_at) / RFU ABCC12 (11746883_a_at) / Fold change /veh ABCC12 (11746883_a_at) / RFU TMEM136 (11760407_x_at) / Fold change /veh TMEM136 (11760407_x_at) / RFU CLDN22 /// WWC2 (11732394_at) / Fold change /veh CLDN22 /// WWC2 (11732394_at) / RFU HLA-DPB1 (11760878_x_at) / Fold change /veh HLA-DPB1 (11760878_x_at) / RFU SPINT1 (11716480_a_at) / Fold change /veh SPINT1 (11716480_a_at) / RFU GAP43 (11754022_s_at) / Fold change /veh GAP43 (11754022_s_at) / RFU A4GNT (11735810_at) / Fold change /veh A4GNT (11735810_at) / RFU PRB3 (11715151_x_at) / Fold change /veh PRB3 (11715151_x_at) / RFU TUBB4B (11761932_at) / Fold change /veh TUBB4B (11761932_at) / RFU CAPN14 (11732068_a_at) / Fold change /veh CAPN14 (11732068_a_at) / RFU TMCC2 (11721928_a_at) / Fold change /veh TMCC2 (11721928_a_at) / RFU IRGQ (11745062_a_at) / Fold change /veh IRGQ (11745062_a_at) / RFU FAM174B (11720279_a_at) / Fold change /veh FAM174B (11720279_a_at) / RFU TMPRSS4 (11748680_a_at) / Fold change /veh TMPRSS4 (11748680_a_at) / RFU FAM212B (11763350_a_at) / Fold change /veh FAM212B (11763350_a_at) / RFU PLEKHG5 (11743358_a_at) / Fold change /veh PLEKHG5 (11743358_a_at) / RFU ZSCAN30 (11745921_a_at) / Fold change /veh ZSCAN30 (11745921_a_at) / RFU CMKLR1 (11741424_a_at) / Fold change /veh CMKLR1 (11741424_a_at) / RFU LOC101060620 /// MAPK8IP1 (11723275_at) / Fold change /veh LOC101060620 /// MAPK8IP1 (11723275_at) / RFU SPTSSB (11747773_x_at) / Fold change /veh SPTSSB (11747773_x_at) / RFU PRSS12 (11739890_at) / Fold change /veh PRSS12 (11739890_at) / RFU BIN1 (11741810_x_at) / Fold change /veh BIN1 (11741810_x_at) / RFU WNT11 (11732464_a_at) / Fold change /veh WNT11 (11732464_a_at) / RFU C10orf10 (11716521_a_at) / Fold change /veh C10orf10 (11716521_a_at) / RFU C5orf56 (11738089_at) / Fold change /veh C5orf56 (11738089_at) / RFU CYB561 (11721691_x_at) / Fold change /veh CYB561 (11721691_x_at) / RFU ANKRD19P (11752326_a_at) / Fold change /veh ANKRD19P (11752326_a_at) / RFU OR2T12 /// OR2T33 /// OR2T8 (11738714_s_at) / Fold change /veh OR2T12 /// OR2T33 /// OR2T8 (11738714_s_at) / RFU VCAN (11748164_a_at) / Fold change /veh VCAN (11748164_a_at) / RFU JSRP1 (11732532_at) / Fold change /veh JSRP1 (11732532_at) / RFU KRTAP10-11 (11738290_x_at) / Fold change /veh KRTAP10-11 (11738290_x_at) / RFU MYO3A (11730013_a_at) / Fold change /veh MYO3A (11730013_a_at) / RFU EBF3 (11725865_a_at) / Fold change /veh EBF3 (11725865_a_at) / RFU CAMK2N1 (11719241_x_at) / Fold change /veh CAMK2N1 (11719241_x_at) / RFU C5orf56 (11738088_a_at) / Fold change /veh C5orf56 (11738088_a_at) / RFU OLFML3 (11715873_a_at) / Fold change /veh OLFML3 (11715873_a_at) / RFU LOC100653217 /// NTM (11731650_a_at) / Fold change /veh LOC100653217 /// NTM (11731650_a_at) / RFU MAPK11 (11762145_a_at) / Fold change /veh MAPK11 (11762145_a_at) / RFU FIZ1 (11724087_x_at) / Fold change /veh FIZ1 (11724087_x_at) / RFU OASL (11726364_x_at) / Fold change /veh OASL (11726364_x_at) / RFU SOX15 (11748057_x_at) / Fold change /veh SOX15 (11748057_x_at) / RFU CD79A (11719716_a_at) / Fold change /veh CD79A (11719716_a_at) / RFU HIST1H1D (11736915_at) / Fold change /veh HIST1H1D (11736915_at) / RFU CASKIN2 (11723855_a_at) / Fold change /veh CASKIN2 (11723855_a_at) / RFU LOC730098 (11760151_x_at) / Fold change /veh LOC730098 (11760151_x_at) / RFU OR4N2 (11742367_at) / Fold change /veh OR4N2 (11742367_at) / RFU PRRT2 (11749266_a_at) / Fold change /veh PRRT2 (11749266_a_at) / RFU SNX32 (11753110_a_at) / Fold change /veh SNX32 (11753110_a_at) / RFU CDHR5 (11726645_a_at) / Fold change /veh CDHR5 (11726645_a_at) / RFU RCAN1 (11760418_a_at) / Fold change /veh RCAN1 (11760418_a_at) / RFU FAM167A (11723789_a_at) / Fold change /veh FAM167A (11723789_a_at) / RFU FAM26E (11764081_at) / Fold change /veh FAM26E (11764081_at) / RFU ISYNA1 (11749810_s_at) / Fold change /veh ISYNA1 (11749810_s_at) / RFU ACY1 (11761880_at) / Fold change /veh ACY1 (11761880_at) / RFU 11764098_at / Fold change /veh 11764098_at / RFU SAMD14 (11745864_x_at) / Fold change /veh SAMD14 (11745864_x_at) / RFU NPB (11741838_a_at) / Fold change /veh NPB (11741838_a_at) / RFU TMPRSS6 (11731388_a_at) / Fold change /veh TMPRSS6 (11731388_a_at) / RFU KRTAP10-2 (11738614_at) / Fold change /veh KRTAP10-2 (11738614_at) / RFU ARHGAP8 /// PRR5-ARHGAP8 (11727945_x_at) / Fold change /veh ARHGAP8 /// PRR5-ARHGAP8 (11727945_x_at) / RFU KRTAP5-7 /// NADSYN1 (11734609_at) / Fold change /veh KRTAP5-7 /// NADSYN1 (11734609_at) / RFU RASL12 (11751679_a_at) / Fold change /veh RASL12 (11751679_a_at) / RFU CDKN2B (11736163_a_at) / Fold change /veh CDKN2B (11736163_a_at) / RFU PRF1 (11729649_at) / Fold change /veh PRF1 (11729649_at) / RFU, ZNF638 /// ZNF638-IT1 / Fold change vs veh, ZNF638 /// ZNF638-IT1 / RFU, PANK3 / Fold change vs veh, PANK3 / RFU, SH3YL1 / Fold change vs veh, SH3YL1 / RFU, ZEB2 / Fold change vs veh, ZEB2 / RFU, NRIP1 / Fold change vs veh, NRIP1 / RFU, PTTG1IP / Fold change vs veh, PTTG1IP / RFU, CAPN2 / Fold change vs veh, CAPN2 / RFU, MED14 / Fold change vs veh, MED14 / RFU, SNORA58 / Fold change vs veh, SNORA58 / RFU, C1orf63 / Fold change vs veh, C1orf63 / RFU, LRRFIP1 / Fold change vs veh, LRRFIP1 / RFU, NDUFAF7 / Fold change vs veh, NDUFAF7 / RFU, SLC12A2 / Fold change vs veh, SLC12A2 / RFU, IBTK / Fold change vs veh, IBTK / RFU, ESF1 / Fold change vs veh, ESF1 / Fold change vs veh, TMEM50B / RFU, TAOK1 / Fold change vs veh, TAOK1 / RFU, ACBD3 / Fold change vs veh, ACBD3 / RFU, TMA16 / Fold change vs veh, TMA16 / RFU, RWDD3 / Fold change vs veh, RWDD3 / RFU, BCAT1 / Fold change vs veh, BCAT1 / RFU, EDEM3 / Fold change vs veh, EDEM3 / RFU, TMEM33 / Fold change vs veh, TMEM33 / RFU, WDR75 / Fold change vs veh, WDR75 / RFU, AHCTF1 / Fold change vs veh, AHCTF1 / RFU, TFRC / Fold change vs veh, TFRC / RFU, ZDHHC17 / Fold change vs veh, ZDHHC17 / RFU, NOM1 / Fold change vs veh, NOM1 / RFU, ARL8B / Fold change vs veh, ARL8B / RFU, ZBTB11 / Fold change vs veh, ZBTB11 / RFU, TAMM41 / Fold change vs veh, TAMM41 / RFU, KIAA1704 /// LOC100996395 / Fold change vs veh, KIAA1704 /// LOC100996395 / RFU, ING1 / Fold change vs veh, ING1 / RFU, TRMT61B / Fold change vs veh, TRMT61B / RFU, FUBP3 / Fold change vs veh, FUBP3 / RFU, TP53 / Fold change vs veh, TP53 / RFU, TNKS2 / Fold change vs veh, TNKS2 / RFU, ZFP14 / Fold change vs veh, ZFP14 / RFU, ACTR2 / Fold change vs veh, ACTR2 / RFU, PPP3R1 / Fold change vs veh, PPP3R1 / RFU, PIK3R1 / Fold change vs veh, PIK3R1 / RFU, HNRNPA1 / Fold change vs veh, HNRNPA1 / RFU, RNF170 / Fold change vs veh, RNF170 / RFU, ZNF28 / Fold change vs veh, ZNF28 / RFU, RNGTT / Fold change vs veh, RNGTT / RFU, OGT / Fold change vs veh, OGT / RFU, BRD1 / Fold change vs veh, BRD1 / RFU, MARS / Fold change vs veh, MARS / RFU, ZNF655 / Fold change vs veh, ZNF655 / RFU, FAHD1 / Fold change vs veh, FAHD1 / RFU, BDP1 / Fold change vs veh, BDP1 / RFU, LRRCC1 / Fold change vs veh, LRRCC1 / RFU, ARID1A / Fold change vs veh, ARID1A / RFU, ZNF146 / Fold change vs veh, ZNF146 / RFU, ZNF330 / Fold change vs veh, ZNF330 / RFU, GPN3 / Fold change vs veh, GPN3 / RFU, C9orf123 / Fold change vs veh, C9orf123 / RFU, N4BP2L2 / Fold change vs veh, N4BP2L2 / RFU, ARFIP1 / Fold change vs veh, ARFIP1 / RFU, FAM179B / Fold change vs veh, FAM179B / RFU, BCL10 / Fold change vs veh, BCL10 / RFU, UHRF1BP1L / Fold change vs veh, UHRF1BP1L / RFU, BET1 / Fold change vs veh, BET1 / RFU, CNOT2 / Fold change vs veh, CNOT2 / RFU, ZNF268 / Fold change vs veh, ZNF268 / Fold change vs veh, ZNF507 / RFU, DGCR2 / Fold change vs veh, DGCR2 / RFU, WDSUB1 / Fold change vs veh, WDSUB1 / Fold change vs veh, HSP90B1 /// MIR3652 / RFU, ADSS / Fold change vs veh, ADSS / RFU, GK / Fold change vs veh, GK / RFU, ZNF148 / Fold change vs veh, ZNF148 / RFU, TAF9 / Fold change vs veh, TAF9 / RFU, SLC1A5 / Fold change vs veh, SLC1A5 / RFU, SLMO2 / Fold change vs veh, SLMO2 / RFU, ABCC4 / Fold change vs veh, ABCC4 / RFU, LOC101060439 /// RAP1B / Fold change vs veh, LOC101060439 /// RAP1B / RFU, RFX7 / Fold change vs veh, RFX7 / RFU, GTPBP10 / Fold change vs veh, GTPBP10 / RFU, CNEP1R1 / Fold change vs veh, CNEP1R1 / RFU, BIVM-ERCC5 /// ERCC5 / Fold change vs veh, BIVM-ERCC5 /// ERCC5 / RFU, ILF3 / Fold change vs veh, ILF3 / RFU 11762660_at / Fold change /veh 11762660_at / RFU VCAN (11757783_s_at) / Fold change /veh VCAN (11757783_s_at) / RFU DDX43 (11728927_at) / Fold change /veh DDX43 (11728927_at) / RFU KRT8 (11758188_x_at) / Fold change /veh KRT8 (11758188_x_at) / RFU NKD1 (11759106_at) / Fold change /veh NKD1 (11759106_at) / RFU SRD5A1 (11742802_a_at) / Fold change /veh SRD5A1 (11742802_a_at) / RFU TPSAB1 /// TPSB2 (11721975_s_at) / Fold change /veh TPSAB1 /// TPSB2 (11721975_s_at) / RFU GSTM3 (11746129_a_at) / Fold change /veh GSTM3 (11746129_a_at) / RFU IL23R (11737362_x_at) / Fold change /veh IL23R (11737362_x_at) / RFU TMEM51 (11727254_a_at) / Fold change /veh TMEM51 (11727254_a_at) / RFU PIWIL2 (11732686_x_at) / Fold change /veh PIWIL2 (11732686_x_at) / RFU ORM1 (11744905_x_at) / Fold change /veh ORM1 (11744905_x_at) / RFU CCDC152 (11743942_at) / Fold change /veh CCDC152 (11743942_at) / RFU ECM1 (11717891_a_at) / Fold change /veh ECM1 (11717891_a_at) / RFU IL23R (11748794_a_at) / Fold change /veh IL23R (11748794_a_at) / RFU TNFAIP8L3 (11732012_x_at) / Fold change /veh TNFAIP8L3 (11732012_x_at) / RFU MBOAT4 (11741988_at) / Fold change /veh MBOAT4 (11741988_at) / RFU 11764193_at / Fold change /veh 11764193_at / RFU TMEM53 (11763286_at) / Fold change /veh TMEM53 (11763286_at) / RFU MAGEB2 (11727129_at) / Fold change /veh MAGEB2 (11727129_at) / RFU TMEM200A (11744735_a_at) / Fold change /veh TMEM200A (11744735_a_at) / RFU CCDC152 (11751479_a_at) / Fold change /veh CCDC152 (11751479_a_at) / RFU FAM211A (11726209_a_at) / Fold change /veh FAM211A (11726209_a_at) / RFU RGS16 (11746705_a_at) / Fold change /veh RGS16 (11746705_a_at) / RFU VCAN (11755009_s_at) / Fold change /veh VCAN (11755009_s_at) / RFU RHOB (11743442_s_at) / Fold change /veh RHOB (11743442_s_at) / RFU RGS16 (11720943_a_at) / Fold change /veh RGS16 (11720943_a_at) / RFU RGS16 (11720944_at) / Fold change /veh RGS16 (11720944_at) / RFU, VPS4B / Fold change vs veh, VPS4B / RFU, CREB1 / Fold change vs veh, CREB1 / RFU, DNAJC13 / Fold change vs veh, DNAJC13 / RFU, GNAQ / Fold change vs veh, GNAQ / RFU, CDK5R1 / Fold change vs veh, CDK5R1 / RFU, ZRANB3 / Fold change vs veh, ZRANB3 / RFU, CUL4A / Fold change vs veh, CUL4A / RFU, CCNY / Fold change vs veh, CCNY / RFU, UFL1 / Fold change vs veh, UFL1 / RFU, COG3 / Fold change vs veh, COG3 / RFU, DIAPH2 / Fold change vs veh, DIAPH2 / RFU, SKA2 / Fold change vs veh, SKA2 / RFU, AFF3 / Fold change vs veh, AFF3 / RFU, LMF1 / Fold change vs veh, LMF1 / RFU, IPO11 / Fold change vs veh, IPO11 / RFU, DFFB / Fold change vs veh, DFFB / RFU, FOXP1 / Fold change vs veh, FOXP1 / RFU, CARD8 / Fold change vs veh, CARD8 / RFU, STRN3 / Fold change vs veh, STRN3 / RFU, ADK / Fold change vs veh, ADK / RFU, RASSF2 / Fold change vs veh, RASSF2 / RFU, WIPF1 / Fold change vs veh, WIPF1 / RFU, LARP1B / Fold change vs veh, LARP1B / RFU, RASA1 / Fold change vs veh, RASA1 / RFU, RB1 / Fold change vs veh, RB1 / RFU, PPFIA1 / Fold change vs veh, PPFIA1 / RFU, MAT2A / Fold change vs veh, MAT2A / RFU, CCT5 / Fold change vs veh, CCT5 / RFU, WDR92 / Fold change vs veh, WDR92 / RFU, CUX1 / Fold change vs veh, CUX1 / RFU, TTC7A / Fold change vs veh, TTC7A / RFU, TMEM135 / Fold change vs veh, TMEM135 / RFU, DEPTOR / Fold change vs veh, DEPTOR / RFU, CPM / Fold change vs veh, CPM / RFU, DNAJB6 / Fold change vs veh, DNAJB6 / RFU, CACNA2D3 / Fold change vs veh, CACNA2D3 / RFU, DTX4 / Fold change vs veh, DTX4 / RFU, TFCP2 / Fold change vs veh, TFCP2 / RFU, GMCL1 /// GMCL1P1 / Fold change vs veh, GMCL1 /// GMCL1P1 / RFU, AEBP2 / Fold change vs veh, AEBP2 / RFU, SNHG1 /// SNORD22 /// SNORD25 /// SNORD26 /// SNORD27 /// SNORD28 /// SNORD29 /// SNORD31 / Fold change vs veh, SNHG1 /// SNORD22 /// SNORD25 /// SNORD26 /// SNORD27 /// SNORD28 /// SNORD29 /// SNORD31 / Fold change (Aza/veh), C12orf56 (ProbeSet 11735607_a_at) / Fold change (ACY-1035/veh), C12orf56 (ProbeSet 11735607_a_at) / Fold change (Aza/veh), FGFR1OP (ProbeSet 11751329_s_at) / Fold change (ACY-1035/veh), FGFR1OP (ProbeSet 11751329_s_at) / Fold change (Aza/veh), VPS36 (ProbeSet 11739960_a_at) / Fold change (ACY-1035/veh), VPS36 (ProbeSet 11739960_a_at) / RFU SYPL1 (11715823_x_at) / Fold change /veh SYPL1 (11715823_x_at) / RFU IGFBP7 (11715501_s_at) / Fold change /veh IGFBP7 (11715501_s_at) / RFU REEP3 (11722064_at) / Fold change /veh REEP3 (11722064_at) / RFU IGLL1 (11728026_x_at) / Fold change /veh IGLL1 (11728026_x_at): dose or concentration left out as unconfirmed
Conditions: ProbeSet 11731610_x_at; LIST B

`Nc1ccc(-c2cccs2)cc1NC(=O)c1ccc2c(c1)cc(C1CC1)n2CCN1CCOCC1` [ACY-1035] was tested, and the “Fold change vs veh, KIAA1704 /// LOC100996395” value was 0.91.
